Source: US7851484B2, “Certain chemical entities, compositions, and methods” (Cytokinetics, Inc., priority 2007, dated 2010)

Each molecule was assayed on SKM MF (assay: SKM MF AC1.4: ATPase screen of skeletal sarcomeric proteins with PK/LDH coupled enzyme system). Conditions: median.
Assay type: biochemical
Set-up: AC1.4 Median: unit not given here
Procedure: For example, test compounds can be assayed in a highly parallel fashion by using multiwell plates by placing the compounds either individually in wells or testing them in mixtures. Assay components including the target protein complex, coupling enzymes and substrates, and ATP can then be added to the wells and the absorbance or fluorescence of each well of the plate can be measured with a plate reader.
In some embodiments, the method uses a 384 well plate format and a 25 μL reaction volume. A pyruvate kinase/lactate dehydrogenase coupled enzyme system (Huang T G and Hackney D D. (1994) J Biol Chem 269(23):16493-501) can be used to measure the rate of ATP hydrolysis in each well. As will be appreciated by those in the art, the assay components are added in buffers and reagents. The incubation periods can be optimized to give adequate detection signals over the background. The assay can be done in real time giving the kinetics of ATP hydrolysis which increases the signal to noise ratio of the assay.
Just prior to screening, the actin, tropomyosin, and troponin complex are mixed together in the desired ratio (e.g., 7:1:1) to achieve maximal calcium regulation of the actin filament. The screen is conducted at a pCa=6.5. This calcium concentration is in the physiological range during muscle contraction.
To measure the generation of ADP during the reaction, a pyruvate kinase/lactate dehydrogenase/NADH coupled enzyme system (PK/LDH) is added to the actin. The myosin is kept separately. The plates are read in real time so that kinetic curves are obtained. These compounds are in DMSO and were already spotted onto the bottoms of 384 well plates at 10 to 40 μg/ml final concentration.

Row | Molecule | AC1.4 Median
1 | CC[C@@H](c1ccccc1)n1c(O)nc2ncc(Cl)cc21 [1-((1S)-1-phenylpropyl)-6-chloroimidazo[4,5-b]pyridin-2-ol] | 6.3763
2 | CC(C)C[C@H](CN1CCOCC1)n1c(O)nc2ncc(Cl)cc21 [1-[(1R)-3-methyl-1-(morpholin-4-ylmethyl)butyl]-6-chloroimidazo[4,5-b]pyridin-2-ol] | 5.0392
3 | CC(C)(C)C(CO)n1c(O)nc2ncc(Cl)cc21 (centres unmarked) [1-[1-(tert-butyl)-2-hydroxyethyl]-6-chloroimidazo[4,5-b]pyridin-2-ol] | 48.1977
4 | 1-(ethylpropyl)-6-ethynyl-2-hydroxyimidazo[4,5-b]pyridine-7-carbonitrile | 0.1028
5 | methyl 4-[(2R)-2-(6-chloro-2-hydroxyimidazo[4,5-b]pyridinyl)butyl]piperazinecarboxylate | 18.2493
